Test results from patent US9708314B2, “Heterocyclic amide compound” (NISSAN CHEMICAL INDUSTRIES, LTD., priority 2013, dated 2017).

Legend:
Assay type in all cases: in vivo
[1] = system: transplanted Oryza sativa; assay: Test Example 1: effect on crop, application before weed generation in submerged conditions; conditions: Application herbicide amount 320 g/ha; Seventeenth Table
How it was run: (§1)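 Water-diluted emulsion formulation is applied onto flood water (4 cm deep) covering alluvial soil on the day weed seeds are sown, after transplanting 2.5 leaf stage rice. Rates are expressed per hectare. Injury or control is graded 0–5 three weeks later.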

Scirpus juncoides = assay: Test Example 1: herbicidal activity, application before weed generation in submerged conditions; conditions: Application herbicide amount 320 g/ha; Seventeenth Table
How it was run: as §1

[2] = system: Echinochloa oryzacola Vasing.; assay: as above; conditions: Application herbicide amount 320 g/ha; Seventeenth Table
How it was run: as §1

Monochoria vaginalis = assay: as above; conditions: Application herbicide amount 320 g/ha; Seventeenth Table
How it was run: as §1

Cyperus difformis = assay: Test Example 3: herbicidal effect by application to foliage (Wagner pot, water depth 0.1-0.5 cm); conditions: Nineteenth Table; application to foliage; application herbicide amount 320 g/ha
How it was run: (§2)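 Visual 0–5 rating of herbicidal ratio, taken 3 weeks after foliar spray of a diluted emulsion formulation at rates expressed as g/ha. Plants had been sown in alluvial soil under 0.1–0.5 cm water and grown 14 days at 25–30 °C under glass before application.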

[3] = system: Echinochloa crus-galli var. crus-galli; assay: as above; conditions: Nineteenth Table; application to foliage; application herbicide amount 320 g/ha
How it was run: as §2

Leptochloa chinensis = assay: as above; conditions: Nineteenth Table; application to foliage; application herbicide amount 320 g/ha
How it was run: as §2

[4] = system: directly sowed Oryza sativa; assay: Test Example 3: effect on crop by application to foliage (Wagner pot, water depth 0.1-0.5 cm); conditions: Nineteenth Table; application to foliage; application herbicide amount 320 g/ha
How it was run: as §2

SMILES	a: transplanted Oryza sativa (effect on crop grade) [1]	B: Scirpus juncoides (herbicidal effect grade) (Scirpus juncoides)	A: Echinochloa oryzicola Vasing. (herbicidal effect grade) [2]	C: Monochoria vaginalis (herbicidal effect grade) (Monochoria vaginalis)	E (herbicidal effect grade) (Cyperus difformis)	H (herbicidal effect grade) [3]	D (herbicidal effect grade) (Leptochloa chinensis)	b (effect on crop grade) [4]
Cn1nnnc1NC(=O)c1ccc(C(F)(F)F)n2c(CC[S+](C)[O-])nnc12 (stereo not shown) [2-058]	5 (Herbicidal ratio of 90% or more (almost completely withered))	4 (Herbicidal ratio of 70% or more and less than 90%)	4 (Herbicidal ratio of 70% or more and less than 90%)	5 (Herbicidal ratio of 90% or more (almost completely withered))	5 (Herbicidal ratio of 90% or more (almost completely withered))	5 (Herbicidal ratio of 90% or more (almost completely withered))	5 (Herbicidal ratio of 90% or more (almost completely withered))	5 (Herbicidal ratio of 90% or more (almost completely withered))
Cn1nnnc1NC(=O)c1ccc(C(F)(F)F)n2c(CCS(C)(=O)=O)nnc12 [2-059]	5 (Herbicidal ratio of 90% or more (almost completely withered))	4 (Herbicidal ratio of 70% or more and less than 90%)	4 (Herbicidal ratio of 70% or more and less than 90%)	4 (Herbicidal ratio of 70% or more and less than 90%)	5 (Herbicidal ratio of 90% or more (almost completely withered))	5 (Herbicidal ratio of 90% or more (almost completely withered))	5 (Herbicidal ratio of 90% or more (almost completely withered))	5 (Herbicidal ratio of 90% or more (almost completely withered))
Cn1nnnc1NC(=O)c1ccc(C(F)(F)F)n2c(-c3ccc(Cl)nc3)nnc12 [2-060]	5 (Herbicidal ratio of 90% or more (almost completely withered))	5 (Herbicidal ratio of 90% or more (almost completely withered))	5 (Herbicidal ratio of 90% or more (almost completely withered))	5 (Herbicidal ratio of 90% or more (almost completely withered))	5 (Herbicidal ratio of 90% or more (almost completely withered))	5 (Herbicidal ratio of 90% or more (almost completely withered))	5 (Herbicidal ratio of 90% or more (almost completely withered))	5 (Herbicidal ratio of 90% or more (almost completely withered))
Cn1nnnc1NC(=O)c1ccc(C(F)(F)F)n2c(-c3cccs3)nnc12 [2-061]	4 (Herbicidal ratio of 70% or more and less than 90%)	5 (Herbicidal ratio of 90% or more (almost completely withered))	5 (Herbicidal ratio of 90% or more (almost completely withered))	5 (Herbicidal ratio of 90% or more (almost completely withered))	5 (Herbicidal ratio of 90% or more (almost completely withered))	5 (Herbicidal ratio of 90% or more (almost completely withered))	5 (Herbicidal ratio of 90% or more (almost completely withered))	5 (Herbicidal ratio of 90% or more (almost completely withered))
Cc1cc(-c2nnc3c(C(=O)Nc4nnnn4C)ccc(C(F)(F)F)n23)n(C)n1 [2-062]	5 (Herbicidal ratio of 90% or more (almost completely withered))	5 (Herbicidal ratio of 90% or more (almost completely withered))	5 (Herbicidal ratio of 90% or more (almost completely withered))	5 (Herbicidal ratio of 90% or more (almost completely withered))	5 (Herbicidal ratio of 90% or more (almost completely withered))	5 (Herbicidal ratio of 90% or more (almost completely withered))	5 (Herbicidal ratio of 90% or more (almost completely withered))	5 (Herbicidal ratio of 90% or more (almost completely withered))
COc1ccc(Cc2nnc3c(C(=O)Nc4nnnn4C)ccc(C(F)(F)F)n23)cc1 [2-065]	2 (Herbicidal ratio of 20% or more and less than 40%)	4 (Herbicidal ratio of 70% or more and less than 90%)	5 (Herbicidal ratio of 90% or more (almost completely withered))	4 (Herbicidal ratio of 70% or more and less than 90%)	5 (Herbicidal ratio of 90% or more (almost completely withered))	5 (Herbicidal ratio of 90% or more (almost completely withered))	5 (Herbicidal ratio of 90% or more (almost completely withered))	3 (Herbicidal ratio of 40% or more and less than 70%)
CC(C)Nc1nnc2c(C(=O)Nc3nnnn3C)ccc(C(F)(F)F)n12 [2-066]	3 (Herbicidal ratio of 40% or more and less than 70%)	5 (Herbicidal ratio of 90% or more (almost completely withered))	5 (Herbicidal ratio of 90% or more (almost completely withered))	4 (Herbicidal ratio of 70% or more and less than 90%)	5 (Herbicidal ratio of 90% or more (almost completely withered))	5 (Herbicidal ratio of 90% or more (almost completely withered))	5 (Herbicidal ratio of 90% or more (almost completely withered))	3 (Herbicidal ratio of 40% or more and less than 70%)
Cn1nnnc1NC(=O)c1ccc(C(F)(F)F)n2c([S+](C)[O-])nnc12 (stereo not shown) [2-067]	5 (Herbicidal ratio of 90% or more (almost completely withered))	4 (Herbicidal ratio of 70% or more and less than 90%)	5 (Herbicidal ratio of 90% or more (almost completely withered))	4 (Herbicidal ratio of 70% or more and less than 90%)	5 (Herbicidal ratio of 90% or more (almost completely withered))	5 (Herbicidal ratio of 90% or more (almost completely withered))	5 (Herbicidal ratio of 90% or more (almost completely withered))	5 (Herbicidal ratio of 90% or more (almost completely withered))
CCCSc1nnc2c(C(=O)Nc3nnnn3C)ccc(C(F)(F)F)n12 [2-068]	5 (Herbicidal ratio of 90% or more (almost completely withered))	5 (Herbicidal ratio of 90% or more (almost completely withered))	5 (Herbicidal ratio of 90% or more (almost completely withered))	4 (Herbicidal ratio of 70% or more and less than 90%)	5 (Herbicidal ratio of 90% or more (almost completely withered))	5 (Herbicidal ratio of 90% or more (almost completely withered))	5 (Herbicidal ratio of 90% or more (almost completely withered))	5 (Herbicidal ratio of 90% or more (almost completely withered))
CCC[S+]([O-])c1nnc2c(C(=O)Nc3nnnn3C)ccc(C(F)(F)F)n12 (stereo not shown) [2-069]	5 (Herbicidal ratio of 90% or more (almost completely withered))	5 (Herbicidal ratio of 90% or more (almost completely withered))	5 (Herbicidal ratio of 90% or more (almost completely withered))	5 (Herbicidal ratio of 90% or more (almost completely withered))	5 (Herbicidal ratio of 90% or more (almost completely withered))	5 (Herbicidal ratio of 90% or more (almost completely withered))	5 (Herbicidal ratio of 90% or more (almost completely withered))	5 (Herbicidal ratio of 90% or more (almost completely withered))
CCCS(=O)(=O)c1nnc2c(C(=O)Nc3nnnn3C)ccc(C(F)(F)F)n12 [2-070]	4 (Herbicidal ratio of 70% or more and less than 90%)	5 (Herbicidal ratio of 90% or more (almost completely withered))	5 (Herbicidal ratio of 90% or more (almost completely withered))	5 (Herbicidal ratio of 90% or more (almost completely withered))	5 (Herbicidal ratio of 90% or more (almost completely withered))	5 (Herbicidal ratio of 90% or more (almost completely withered))	5 (Herbicidal ratio of 90% or more (almost completely withered))	3 (Herbicidal ratio of 40% or more and less than 70%)
